Several values for one entry are separate records, joined by “and”; a condition that tells them apart may be missing. Identical values can stand only once. Blank lines part the entries; values can stand above or below the molecule they belong to.
Experiments:
[1] = Salmon calcitonin (sCT) oral delivery, serum sCT by EIA; conditions: rats, delivery agent compound dose 150 mg/kg, sCT dose 30 μg/kg
Method: Oral dosing (PO) compositions of a delivery agent compound and salmon calcitonin (sCT) in deionized water were prepared as described in Table 2 below. […] Either the sodium salt of the compound was used or the free acid was converted to the sodium salt by stirring the resultant solution and adding one equivalent of sodium hydroxide (1.0 N) and diluting with water. The solution was vortexed, then heated (about 37° C.) and sonicated. The pH was adjusted to about 7 (about 6.5 to 8.5) with NaOH or HCl. 90 μg sCT from a sCT stock solution (2 mg/ml made by adding 10001 pH 4 phosphate buffer to sCT and allowing it to go into solution by sitting for about 10-20 minutes and periodically gently inverting) was added to the solution.
The typical dosing and sampling protocols were as follows. Male Sprague-Dawley rats weighing between 200-250 g were fasted for 24 hours and administered ketamine (44 mg/kg) and chlorpromazine (1.5 mg/kg) 15 minutes prior to dosing and again as needed to maintain anesthesia. A dosing group of five animals was administered one of the dosing solutions. For oral dosing, an 11 cm Rusch 8 French catheter was adapted to a 1 ml syringe with a pipette tip. The syringe was filled with dosing solution by drawing the solution through the catheter, which was then wiped dry. The catheter was placed down the esophagus leaving 1 cm of tubing past the incisors. Solution was administered by pressing the syringe plunger.
Blood samples were collected serially from the tail artery, typically at time=0, 10, 20, 30, 60 and 90 minutes. […] Numbers were adjusted according to baseline values obtained at time=0. The results from the animals in each dosing group were averaged for each time point.

[2] = Insulin pulmonary delivery, serum insulin by ELISA, ratio to insulin-alone control; format: in vivo, Sprague-Dawley rats; conditions: rats
Method: Dosing compositions of delivery agent compound and human insulin in water were prepared. Typically, to 1.5 mg of delivery agent compound was added deionized water to bring the volume to 1.0 ml, and the solution was vortexed. […] The pH was adjusted to between about 7.0 to 8.5 with NaOH or HCl. […] The final delivery agent compound dose, insulin dose and volume dose amounts are listed below in Table 9.
The typical dosing and sampling protocols were as follows. […] A control group of five animals was dosed insulin alone. A tracheal instillator for rodents, equipped with light (available from Penn Century, Inc., Pittsburgh, Pa.) was filled with dosing solution and inserted down the throat until the needle went into the trachea (confirmed visually). The dosing solution was administered by pressing the plunger.
Blood samples from each animal were collected serially from the tail artery, typically at 5, 15, 30, 60 and 120 minutes after dosing. […] The ratio of the area under the curve (AUC) for the test group versus that of the control group is reported below. The ratio of the maximum serum insulin concentration (Cmax) for the test group versus that of the control group is also reported below.

[3] = Insulin oral delivery, serum human insulin by ELISA; conditions: rats
Method: Oral dosing (PO) compositions of delivery agent compound and human zinc insulin (minimum 26 IU/mg available from Calbiochem—Novabiochem Corp, La Jolla, Calif.) were prepared in deionized water. […] The pH was adjusted to about 7 to 8.5 with NaOH or HCl. […] The final delivery agent compound dose, insulin dose and dose volume amounts are listed below in Table 8.
(§1) The typical dosing and sampling protocols were as follows.
Serum insulin levels were determined with an Insulin ELISA Test Kit (Kit # DSL-10-1600 from Diagnostic Systems Laboratories, Inc., Webster, Tex.), modifying the standard protocol in order to optimize the sensitivity and linear range of the standard curve for the volumes and concentrations of the samples used in the present protocol. […] The five values for each time point were averaged and the results plotted as serum insulin concentration versus time.

[4] = Daptomycin oral delivery, plasma daptomycin by HPLC; format: in vivo, Sprague-Dawley rats; conditions: rats, delivery agent compound dose 200 mg/kg, daptomycin dose 50 mg/kg, volume dose 1 mL/kg
Method: Dosing solutions containing a delivery agent compound and daptomycin (Cubist Pharmaceuticals, Cambridge, Mass.) were prepared in 0.9% normal saline. […] This mixture was vortexed and placed in a sonicator (about 37° C.). The pH was adjusted to about 7.0-7.5 with aqueous HCl or NaOH. […] The mixture was vortexed to produce a uniform solution, also using sonication if necessary. The delivery agent compound solution was mixed with daptomycin from a stock solution (200 mg daptomycin/mL in 0.9% normal saline and the pH adjusted, if necessary, to between 6.0-7.0 with NaOH or HCl). The stock solution was stored frozen (−20° C.) wrapped in foil, then thawed and warmed gradually to about 25° C. before using. The delivery agent-daptomycin mixture was vortexed at low speed to produce a uniform solution. The pH was adjusted to about 7.0-7.5 with aqueous NaOH. The solution was then diluted with 0.9% normal saline to the desired volume (usually 2.0 ml) and concentration and stored wrapped in foil before use.
as §1
Heparinized rat blood samples were collected via the ventral tail artery, typically at 0.25, 0.5, 0.75, 1.0, 2.0, and 4.0 hours after dosing, and stored on ice. Blood samples were then spun (centrifuged) at 11,500 rpm for 4 minutes at 4° C. to obtain the plasma (supernatant), which was stored at −70° C. The plasma daptomycin concentrations were measured by isocratic reversed phase HPLC, keeping samples at 4° C. during analysis. Blank plasma studies show baseline values of zero.
Daptomycin blood concentrations results from the individual animals in each dosage group were averaged for each time point.

[5] = Interferon oral delivery, serum IFN by immunoassay; format: in vivo, Sprague-Dawley rats; conditions: rats, delivery agent compound 200 mg/kg, IFN 1 mg/kg, 1 ml/kg
Method: Dosing solutions of delivery agent compound and human interferon (IFN) were prepared in deionized water. […] This mixture was vortexed and placed in a sonicator (about 37° C.). The pH was adjusted to about 7.0 to 8.5 with aqueous NaOH. The mixture was vortexed to produce a uniform suspension or solution, also using sonication and heat if necessary.
as §1
Serum IFN concentrations were quantified using Cytoscreen Immunoassay Kit for human IFN-alpha (catalog # KHC4012 from Biosource International, Camarillo, Calif.). Previous studies indicated baseline values of about zero.

[6] = Recombinant human growth hormone (rhGH) oral delivery, serum rhGH by immunoassay; conditions: oral gavage, rats, delivery agent compound 200 mg/kg, rhGH 3 mg/kg
[7] = pulmonary, volume 0.4 ml/kg, delivery agent compound 0.03 mg/kg, insulin 0.3 mg/kg (so in the source)

SMILES: O=C(O)CCCCCOc1cccc(O)c1 [Compound 45]
Mean Peak Serum sCT (pg/ml ± SD) (SE) ([1]; dose volume 1 (ml), 150 mg/kg): 125 ± 187 pg/mL and 172 ± 158 pg/mL
Mean Ratio of AUC for insulin + compound versus AUC for insulin alone [2, 7]: 1.01
Mean Peak Serum [INS] ± SD ([3]; delivery agent compound 200 mg/kg, insulin 0.5 mg/kg, 1 ml/kg): 70.32 ± 149.1 μU/ml

SMILES: CC(=O)c1cc(O)ccc1OCCCCCCCC(=O)O [Compound 57, (4-hydroxy-2-acetylphenyl)-8-oxyoctanoic acid]
Mean plasma Cmax [daptomycin] ± SD [4]: 8590 ± 4210 ng/mL
Mean Peak Serum [INS] ± SD ([3]; delivery agent compound 200 mg/kg, insulin 3 mg/kg, 1 ml/kg): 3322 ± 2721 μU/ml

SMILES: O=C(O)c1ccc(COc2ccc(O)cc2)cc1 [Compound 67]
Mean Peak Serum sCT (pg/ml ± SD) (SE) ([1]; dose volume 1 (ml), 150 mg/kg): 142 ± 142 pg/mL and 256 ± 158 pg/mL
Mean Peak Serum sCT (pg/ml ± SD) (SE) ([1]; dose volume 2 (ml)): 681 ± 419 pg/mL
Mean Peak Serum [IFN] ± SD [5]: 3.4451 ± 4.5 ng/mL
Cmax (serum insulin) ([2]; pulmonary, volume 0.4 ml/kg, delivery agent compound 0.03 mg/kg, insulin 0.06 mg/kg (so in the source)): 82.23 ± 47.16 μU/ml and 70.85 ± 36.24 μU/ml
Cmax (serum insulin) ([2]; pulmonary, volume 0.4 ml/kg, delivery agent compound 0.03 mg/kg, insulin 0.15 mg/kg (so in the source)): 84.40 ± 15.06 μU/ml and 91.20 ± 37.30 μU/ml
Cmax (serum insulin) [2, 7]: 66.04 ± 47.42 μU/ml and 92.14 ± 36.17 μU/ml and 115.04 ± 68.23 μU/ml
Mean Peak Serum [rhGH] ([6]; volume dose 1 ml): 15 ng/mL and 14.7 ng/mL

SMILES: O=C(O)CCCCCCCOc1ccc(F)cc1F [Compound 71]
Mean Peak Serum sCT (pg/ml ± SD) (SE) ([1]; dose volume 2 (ml)): 302 ± 246 pg/mL
Cmax (serum insulin) [2, 7]: 57.82 ± 35.28 μU/ml
Mean Peak Serum [rhGH] ([6]; volume dose 3 ml): 5.94 ng/mL

SMILES: O=C(O)c1ccc(COc2ccccc2Cl)cc1 [Compound 78]
Cmax (serum insulin) [2, 7]: 80.56 ± 30.51 μU/ml
Mean Peak Serum [rhGH] ([6]; volume dose 1 ml): 0 ng/mL

More lines, now with the values ahead:

Mean Peak Serum sCT (pg/ml ± SD) (SE) ([1]; dose volume 3 (ml)): 95 ± 156 pg/mL
Mean Peak Serum sCT (pg/ml ± SD) (SE) ([1]; dose volume 4 (ml)): 35 ± 49 pg/mL
Cmax (serum insulin) [2, 7]: 135.56 ± 80.96 μU/ml
Mean Ratio of AUC for insulin + compound versus AUC for insulin alone [2, 7]: 1.30
SMILES: O=C(O)CCCCCCCCCOc1ccc(O)cc1 [Compound 48]

Mean Ratio of AUC for insulin + compound versus AUC for insulin alone [2, 7]: 0.54
Mean Peak Serum [INS] ± SD ([3]; delivery agent compound 100 mg/kg, insulin 3 mg/kg, 0.5 ml/kg): 335.7 ± 227.05 μU/ml
SMILES: O=C(O)CCCCCOc1ccc(O)cc1 [Compound 49]

Cmax (serum insulin) ([2]; Table 9 pulmonary delivery, volume 1 ml/kg, delivery agent compound 3 mg/kg, insulin 100 mg/kg (so in the source)): 7.843 μU/ml
Mean Peak Serum [INS] ± SD ([3]; delivery agent compound 100 mg/kg, insulin 3 mg/kg, 1 ml/kg): 7.843 ± 8.527 μU/ml
SMILES: CCC(=O)c1ccc(OCCCCCCCC(=O)O)cc1 [Compound 63]
